# Tested on: Enterococcus faecalis
# Assay: Antibacterial activity against Streptococcus faecalis assessed as growth inhibition
smiles,measurement,value
"Nc1nc(N)c2cc(S(=O)(=O)c3ccc4ccccc4c3)ccc2n1 [6-naphthalen-2-ylsulfonylquinazoline-2,4-diamine]",IC50,0.02 nM
